According to patent publication US11767313B2, “Compounds as nuclear transport modulators and uses thereof” (XWPHARMA LTD., priority 2018, dated 2023):

What was measured:
A549 = experiment: CellTiter-Glo cell proliferation assay, A549; assay type: cell-based; conditions: Homo sapiens, 72 hours, Table 1, read-out: Growth inhibition (IC50)
Procedure: (§1) CellTiter-Glo® Luminescent Cell Viability assay (with Promega CellTiter 96® Luminescent CellTiter-Glo® kit) was used to study the proliferation inhibition by test compounds. Compounds were resuspended in DMSO to make a 25 mM stock suspension. Cells of cancer cell lines or normal tissues were seeded in 96-well plates at 1,500 to 5,000 cells/well overnight. Compounds were 2- or 3-fold diluted serially to obtain 10 concentrations. Then, the drugs were added to the cell wells by Bravo (Agilent) and incubated for 72 hours. The cells were lysed by adding CellTiter-Glo® Reagent (per manufacturer's instructions) and subsequently, the luminescence was read using EnVision® (PerkinElmer).
(§2) The percent of growth was calculated as follows. DMSO-treated cells were employed as vehicle control (High control, HC) and culture medium alone was employed as background (Low control, EC). % growth=100×(Lum sample−Lum EC)/(Lum HC−Lum EC). The ICso was calculated by concentration-response curve fitting using Graphpad Prism.
(§3) Hematological cancer cell lines tested included OCI-AML3, MV-4-11, KG-1, Kasumi-1, K562, THP-1; solid cancer cell lines tested included U87MG, U251, T98G, LN229, A172, H460, H2009, A549; normal cell lines tested included HCN2 and 3T3-L1. […] However, they were not toxic to in vitro cultured normal cells.

H460 = experiment: CellTiter-Glo cell proliferation assay, H460; assay type: cell-based; conditions: Homo sapiens, NCI-H460, 72 hours, Table 1, read-out: Growth inhibition (IC50)
Procedure: as §1, §2, §3

H2009 = experiment: CellTiter-Glo cell proliferation assay, H2009; assay type: cell-based; conditions: Homo sapiens, NCI-H2009, 72 hours, Table 1, read-out: Growth inhibition (IC50)
Procedure: as §1, §2, §3

HCT116 = experiment: Cytotoxicity, cell proliferation assay, HCT116 colon cancer; assay type: cell-based; conditions: Table 8
Procedure: as §1, §2
The cytotoxicity of test compounds in brain (HCN2), colon cancer (HCT116) and normal colon cell (C8-B4) lines was determined using the cell proliferation assay as described in Example 19.

Ratio of brain to plasma = assay type: in vivo; conditions: rats, 10 mg/kg PO
Procedure: Following collection, brain tissue was rinsed with cold saline, dried on filter paper, weighed and snap-frozen by placing on dry ice. All samples were stored frozen at approximately −80° C. until analysis. At the time of analysis, brain tissue was homogenized (homogenizing solution PBS, pH 7.4), mixed with internal standard in acetonitrile, vortexed, centrifuged, and supernatant was injected for analysis. Concentration of compounds in plasma was determined using LC-MS-MS instrumentation (API 4000, Triple Quadrupole LC/MS/MS Mass Spectrometer). Plasma samples were treated with the identical method (except homogenization step) and the concentration of compound in each matrix was calculated based on generated standard curves.

U87MG cells = experiment: Capase-Glo 317 apoptosis assay; assay type: cell-based; conditions: Homo sapiens, U-87 MG, 72 hours
Procedure: A Capase-Glo® 317 assay was used to determine the apoptosis activity of test compounds in U87MG cells.
Compounds were dissolved in 25 mM DMSO stock solution and serially diluted. DMSO was used as the vehicle control (high control, HC) and culture medium was used as the background (low control LC). The test compounds were applied to plates and spun at 25° C. at 1,000 RPM for 1 min and shaken on a plate shaker for 2 min. Samples (80 nL) of the compounds from the plates were transferred to 384-well cell culture plates using a liquid handler.
Cells were harvested and the cell numbers counted. 40 μL of the cell suspension with the adjusted density was added to 384-well cell culture pates. The final cell density is 1,000 cells/well. Cell culture medium only was used in the low control (LC) samples. The plates were covered with a lid and placed in a 5% CO2 incur at 37° C. for 72 hours.
After incubating for 72 hours, the plates were removed from the incubator and equilibrated at 25° C. for 15 minutes. CellTiter Glo® regen was incubated at 37° C. before the experiments. 40 μL of Capase-Glo® 317 was added into each well to be detected at a 1:1 ratio to culture medium. The plates were then placed at 25° C. for 30 min and read using an EnSpire® Plate Reader.
The % activity remaining was determined using the following formula: % Remaining Activity=[…]×(Lumsample−LumLC)/(LumHC−LUM LC), where HC is obtained from cells treated with 0.1% DMSO only, LC is obtained from culture medium only.

[1] = mouse, in vivo, po
U87MG-luc tumor = experiment: U87MG-luc human glioblastoma orthotopic model; assay type: in vivo; conditions: 20 mg/kg orally, 3 times/week, 4 weeks
From the text: Animals: Female BALB/c Nude mice (Supplied by Beijing AniKeeper Biotech Co., Ltd., 6-8 weeks old/18-22 g) were used. General procedures for animal care and using were in accordance with the standard operating procedures (SOPs) of Pharmaron, Inc.
Grouping and Treatments: Grouping and treatment were started on Day 7 post tumor cells inoculation. Mice were imaged to monitor the tumor growth, then mice were randomly assigned to respective groups using a computer-generated randomization procedure. All test articles were administered orally 20 mg/kg with 3 times/week, for 4 weeks post tumor implantations (n=12 per group).
Cell Culture: The Human glioblastoma U87-luc tumor cell line was maintained in vitro as monolayer culture and used for tumor inoculation
Tumor Inoculation and Randomization: 2.5×10^5 luciferase-expressing U87MG-luc tumor cells suspended in 2 μL MEM medium were injected into the right forebrain by positioning the needle at AP: 2.0 mm, ML: 0.5-1.0 mm, DV: 3.0 mm from bregma. The injection was slowly proceeding over a one-minute period. Upon completing injection, the needle was retained for another minute. Measurement Parameters: Tumor growth (monitored by image analysis), body weight and survival days were recorded.
Termination Criterion: Individual animal was humanely sacrificed by carbon dioxide when body weight loss >20% and animals could not get to adequate food or water.
Statistical Analysis: Data was recorded as means±standard error of the mean for all measurement parameters as study designed. All statistical tests were conducted by SPSS 17.0 statistical software, and the level of significance is set at p<0.05.

O=C(/C=C\n1cnc(-c2cc(C(F)(F)F)cc(S(F)(F)(F)(F)F)c2)n1)NNc1cnccn1 [Compound I, (Z)-3-(3-(3-(pentafluorosulfanyl)-5-(trifluoromethyl)phenyl)-1H-1,2,4-triazol-1-yl)-N′-(pyrazin-2-yl)acrylohydrazide]
IC50 (A549): 1490 nM | IC50 (H460): 294 nM | IC50 (H2009): 521 nM | IC50 (HCT116; Homo sapiens, HCT-116): 5960 nM | HCT116 Max % inh (HCT116): 88% | Kp at 0.25 h (Ratio of brain to plasma; rat, brain/plasma, 0.25 h): 0.386 | Kp at 1 h (Ratio of brain to plasma; rat, brain/plasma, 1 h): 0.707 | Kp at 8 h (Ratio of brain to plasma; rat, brain/plasma, 8 h): 0.782 | brain concentration (second number of pair) (Ratio of brain to plasma; 0.25 h): 319 ng/g | plasma concentration (first number of pair) (Ratio of brain to plasma; 0.25 h): 810 ng/g | brain concentration (second number of pair) (Ratio of brain to plasma; 1 h): 1301 ng/g | plasma concentration (first number of pair) (Ratio of brain to plasma; 1 h): 1887 ng/g | brain concentration (second number of pair) (Ratio of brain to plasma; 8 h): 194 ng/g | plasma concentration (first number of pair) (Ratio of brain to plasma; 8 h): 252 ng/g | EC50 (U87MG cells): 16000 nM | Emax (U87MG cells; U87MG): 325% | survival in MTD study [1]: survived

CC(C)(C)C(=O)NNC(=O)/C=C\n1cnc(-c2cc(C(F)(F)F)cc(S(F)(F)(F)(F)F)c2)n1 [Compound III, (Z)-3-(3-(3-(Pentafluorosulfanyl)-5-(trifluoromethyl)phenyl)-1H-1,2,4-triazol-1-yl)-N′-pivaloylacrylohydrazide]
bodyweight loss (individual animal) (U87MG-luc tumor): less than 10% | medium survival time (MST) (U87MG-luc tumor): 47 days | tolerability (U87MG-luc tumor): well tolerated by most animals | reduction in bioluminescence signal compared with the vehicle control group (U87MG-luc tumor; end of treatment period): 99%
